Measurements: PubChem BioAssay AID624130 (National Center for Advancing Translational Sciences (NCATS), 2012)
≈ marks a conversion by molar mass, not a printed value.

Test system: aqueous kinetic solubility, pH 7.4 phosphate buffer, LC-UV/MS
Assay: qHTS Assay to Find Inhibitors of T. brucei phosphofructokinase: Aqueous Kinetic Solubility
Conditions: hits give high values

solubility: 150 µM (≈ 63.9 µg/mL)
Compound: O=C(Cc1ccc(Cl)c(Cl)c1)Nc1ccc(S(=O)(=O)Nc2ccon2)cc1
